Laboratory results taken from patent publication US11524962B2, “Substituted pyrrolo[2,3-d]pyrimidines as inhibitors of protein arginine methyl transferase 5 (PRMT5)” (PRELUDE THERAPEUTICS, INCORPORATED, priority 2017, dated 2022).

Tests used:
[1] = target: T1, PRMT5/MEP50 complex (Homo sapiens (Human), UniProt O14744); experiment: Flash plate assay; type: biochemical; settings: read-out: Flash Plate IC50
Method: Flash plate assay. Compounds were solubilized, and 3-fold diluted in 100% DMSO. […] Standard reactions were performed in a total volume of 30 μl in assay buffer, with 300 nM histone H4 based AcH4-23 (Anaspec: AS-65002) as substrate. To this was added the PRMT5/MEP50 complex diluted to provide a final assay concentration of 2.5 nM and the compounds were allowed to preincubate for 20 minutes at 37° C. The reaction was initiated by adding S-[3H-methyl]-adenosyl-L-methionine (PerkinElmer: NET155001MC) to final concentration of 1 μM. Following a 30 minutes incubation at 37° C., the reaction was stopped by adding 25 μL of 8M Guanidine HCl. Prepare streptavidin YSI SPA beads (Perkinelmer: RPNQ0012) at 0.3 mg/mL in assay buffer. To each reaction, add 150 μL of SPA beads suspension, and incubated while shaking at room temperature for 30 minutes. The plate was centrifuged at 100×g for 30 second before reading in a scintillation counter. IC50 values were determined by fitting the data to the standard 4 parameters with Hill Slope using GraphPad Prism software. This procedure produced the Flash Plate data in Table 7.

[2] = target: T1, PRMT5/MEP50 complex; experiment: HotSpot Assay; type: biochemical
Method: HotSpot Assay. Compounds were solubilized and 3-fold diluted in 100% DMSO. […] Standard reactions were performed in a total volume of 50 μl in assay buffer, with histone H2A (5 μM final) as substrate. To this was added the PRMT5/MEP50 complex diluted to provide a final assay concentration of 5 nM and the compounds were allowed to preincubate for 15 to 20 minutes at room temperature. The reaction was initiated by adding S-[3H-methyl]-adenosyl-L-methionine (PerkinElmer) to final concentration of 1 μM. Following a 60 minutes incubation at 30° C., the reaction was stopped by adding 100 μL of 20% TCA. Each reaction was spotted onto filter plate (MultiScreen FB Filter Plate, Millipore), and washed 5 times with PBS buffer, Scintillation fluid was added to the filter plate and read in a scintillation counter. IC50 values were determined by fitting the data to the standard 4 parameters with Hill Slope using GraphPad Prism software. This procedure generated the HotSpot data in Table 7.

[3] = tested on: Symmetric Di-Methyl Arginine (sDMA) marks in Granta-519 cells; experiment: sDMA Western blot / In Cell Western in Granta-519 cells; type: cell-based; settings: Homo sapiens, 72 h; Granta-519, 3 days; read-out: sDMA_Granta IC50
Method: (§1) Compound titration and cell culture: Compounds were dissolved in DMSO to make 10 mM stock and 3-fold series dilutions were further conducted to make working stocks top at 1 mM. Granta-519 cells were maintained in PRMI 1640 (Corning Cellgro, Catalog #: 10-040-CV) supplemented with 10% v/v FBS (GE Healthcare, Catalog #: SH30910.03) and U-87 MG cells were maintained in DMEM (Corning Cellgro, Catalog #: 10-013-CV) with 10% FBS and 2 mM Glutamin (Corning Cellgro, Catalog #25005CV).
(§2) To determine enzyme inhibition IC50 values in Granta-519 and U-87 MG cells using Western Blot analysis. One day before experiment, Granta-519 cells were passaged to a density of 0.5×10^6 cells/ml. U-87 MG cells were trypsinized and 4×10^5 cells were seeded into 6-well plates and allow to grow overnight. The next day, Granta-519 cells were spun down at 1,500 rpm for 4 min, resuspend in fresh medium at 0.5×10^6 cells/ml and 3 mL of culture (1.5×10^6 cells) were seeded into 6 well plate. Eight-point, 3-fold serial dilutions of compound working stocks were added to cells (3 ul, 1:1,000 dilution, DMSO concentration was 0.1%; final top concentration at 1 uM) and incubated for 3 days. Cells incubated with DMSO was used as a vehicle control.
(§3) Cells were harvested 3 days later, resuspended in 15 uL PBS, lysed in 4% SDS, and homogenized by passing through homogenizer column (Omega Biotek, Catalog #: HCR003). Total protein concentrations were determined by BCA assay (ThermoFisher Scientific, Catalog #: 23225). Lysates were mixed with 5× Laemmli buffer and boiled for 5 min. Forty ug of total protein was separated on SDS-PAGE gels (Bio-Rad, catalog #: 4568083, 4568043), transferred to PVDF membrane, blocked with 5% dry milk (Bio-Rad, Catalog #: 1706404) in TBS with 0.1% v/v Tween 20 (TBST) for 1 hour at room temperature (RT), and incubated with primary antibodies (sDMA: Cell signaling, Catalog #: 13222, 1:3,000; β-Actin: sigma, Catalog #: 1:5,000) in 5% dry milk in TBST at 4° C. overnight. The next day, membranes were washed with TBST, 5×5 min, and incubated with HRP conjugated seconded antibody (GE Healthcare; Catalog #: NA934-1ML, NA931-1ML; 1:5,000) for 2 hours at RT, followed by 5×5 min washes with TBST, and incubation with ECL substrates (Bio-Rad, Catalog #: 1705061, 1705062). Chemiluminescent signal was captured with Fluochem HD2 imager (Proteinsimple). SmD3me2s bands were quantified by ImageJ. Signals were normalized to β-Actin and DMSO control. IC50 values were calculated using Graphpad Prism ([Inhibitor]vs. normalized response−Variable slope).
sDMA In Cell Western procedure (ICW): Granta-519 cells were passaged to a density of 0.5×10^6 cells/ml one day before experiments and allowed to grow overnight. The next day (day 0), cells were spun down at 1,500 rpm for 4 min, resuspended in fresh medium to 0.2×10^6 cells/ml and 100 uL of cells were added to 384-well plates using a Multidrop Combi Dispenser (ThermoFisher). A series of 9-point, 3-fold serial dilutions of compounds were prepared and dispensed into wells from a 1 mM stock solution using a TECAN digital dispenser (D300e) and the DMSO % concentration was normalized in each well to 0.1%. DMSO and 3 uM of reference compounds were used as negative (minimum inhibition) and positive (maximum inhibition) controls, respectively. After 3 days of incubation, cells were first resuspended and then 80 ul of cells were transferred to a Poly-D-lysine 384-well plate (Corning, Catalog #354663), followed by 30 minutes incubation at room temperature (RT) and 5 additional hours of incubation at 37° C. […]

[4] = tested on: Symmetric Di-Methyl Arginine (sDMA) marks in U-87 MG cells; experiment: sDMA Western blot / In Cell Western in U-87 MG cells; type: cell-based; settings: Homo sapiens, 72 h, 3 days, read-out: sDMA_U87 IC50
Method: as §1, §2, §3
U87-MG cells were trypsinized one day before the experiment, seeded into a 384-well plate at 2500 cells/well using a Multidrop Combi Dispenser (ThermoFisher) and allowed to grow overnight. The next day (day 0), a series of 9-point, 3-fold serial dilutions of compounds were prepared and dispensed into wells from a 1 mM stock solution using a TECAN digital dispenser (D300e) and the DMSO % concentration was normalized to 0.1%. Three days later, media was removed, and cells were processed as described above.
To determine IC50 values, the ratio for each well was calculated (sDMA 800 nm value/DRAQ5 700 nm value). Each plate included 28 negative control wells (DMSO only, minimum inhibition) and 18 positive control wells for maximum inhibition (treated with 3 uM of a reference compounds, background wells). The average ratios of minimum and maximum inhibition controls were calculated and used to determine the percentage of sDMA, relative to DMSO, for each well in the plate.
These procedures generated the sDMA data in Table 7.

[5] = tested on: U-87 MG cells; experiment: Cell proliferation assay in U-87 MG cells; type: cell-based; settings: Homo sapiens, 240 h, day 10, read-out: Prolif_U87 IC50
Method: One day before experiment, Granta-519 cells were passaged to a density of 0.5×10^6 cells/ml. U-87 MG cells were trypsinized and 2,000 cells were seeded into 96-well plates and allow to grow overnight. On the day of experiment (day 0), Granta-519 Cells were spun down at 1,500 rpm for 4 min, resuspended in fresh medium to 0.5×10^6 cells/ml and 190 ul of cells were added to 96 well plates. For U-87 MG cells, old medium was removed and replaced with 190 uL fresh medium. Compound working stocks were first diluted at 1:50 with fresh medium in 96 well plate and 10 μL of diluted drugs were added to 96 well plates containing cells and incubated for 3 days. DMSO was used a vehicle control.
One day 3, 50 uL of Granta-519 cells were transferred to a new 96-well plate and 140 uL fresh medium was added. For U-87 MG cells, old medium was removed and replaced with 190 uL fresh medium. Compound working stocks were freshly diluted at 1:50 with medium and 10 μL of diluted drugs were added to cells and grow for 3 additional days. The same process was repeated on day 6. Cells were allowed to grow for additional 4 days.
On day 10, 100 uL Granta-519 cells were transferred to a new 96 well plate and 10 μL of Cell Counting Kit-8 (CCK-8, Jojindo, CK04-13) solution was added. For U-87 MG cells, old medium was removed and replaced with 100 uL fresh medium and 10 uL CCK-8 solution was added. Plates were incubated in CO2 incubator for 2 hours (Granta-519 cells) or 30 min (U-87 MG cells) and OD450 values were measured with a microplate reader (iMark microplate reader, Bio-Rad). Percentage of viable cells, relative to DMSO vehicle control, were calculated and plotted in Graphpad Prism ([Inhibitor]vs. normalized response−Variable slope) to determine proliferation IC50 values on day 10.
These cell proliferation procedures produced the data in Table 7.

T1 sequence (O14744 whole entry): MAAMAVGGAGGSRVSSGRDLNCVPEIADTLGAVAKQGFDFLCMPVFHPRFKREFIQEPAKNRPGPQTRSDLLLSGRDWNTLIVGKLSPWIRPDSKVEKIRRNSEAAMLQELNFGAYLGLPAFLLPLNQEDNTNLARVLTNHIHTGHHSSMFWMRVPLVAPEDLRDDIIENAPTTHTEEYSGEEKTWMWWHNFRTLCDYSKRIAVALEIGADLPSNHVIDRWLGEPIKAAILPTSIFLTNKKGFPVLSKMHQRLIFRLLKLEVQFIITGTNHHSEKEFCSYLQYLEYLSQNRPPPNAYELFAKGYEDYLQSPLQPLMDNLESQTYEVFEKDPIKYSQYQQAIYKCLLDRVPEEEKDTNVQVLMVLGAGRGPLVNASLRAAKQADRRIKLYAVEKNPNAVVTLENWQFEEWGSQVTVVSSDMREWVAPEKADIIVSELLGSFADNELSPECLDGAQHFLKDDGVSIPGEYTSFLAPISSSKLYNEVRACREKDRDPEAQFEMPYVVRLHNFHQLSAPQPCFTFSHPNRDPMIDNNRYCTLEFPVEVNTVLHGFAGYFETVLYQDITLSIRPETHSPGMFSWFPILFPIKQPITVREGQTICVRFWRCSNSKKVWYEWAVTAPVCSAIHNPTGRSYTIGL
T1 sequence (Q9BQA1 whole entry partner): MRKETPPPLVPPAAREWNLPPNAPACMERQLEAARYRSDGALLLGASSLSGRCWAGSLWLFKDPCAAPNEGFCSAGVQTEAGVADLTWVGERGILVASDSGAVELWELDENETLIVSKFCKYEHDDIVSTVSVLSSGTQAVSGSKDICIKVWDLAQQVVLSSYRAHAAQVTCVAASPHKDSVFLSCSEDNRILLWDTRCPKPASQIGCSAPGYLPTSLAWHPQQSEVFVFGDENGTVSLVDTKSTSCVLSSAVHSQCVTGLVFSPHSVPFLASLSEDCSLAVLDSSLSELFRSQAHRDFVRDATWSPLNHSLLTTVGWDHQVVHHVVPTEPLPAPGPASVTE

Structure (SMILES) | IC50 [1] [µM] | IC50 [2] [µM] | IC50 [3] [µM] | IC50 [4] [µM] | IC50 [5] [µM]
CO/N=c1\[nH]cnc2c1ccn2[C@@H]1O[C@H]([C@H](O)c2ccc3c(c2)CC3)[C@@H](O)[C@H]1O [Example 20, 7-((2R,3R,4S,5R)-5-((R)-bicyclo[4.2.0]octa-1(6),2,4-trien-3-yl(hydroxy)methyl)-3,4-dihydroxytetrahydrofuran-2-yl)-3,7-dihydro-4H-pyrrolo[2,3-d]pyrimidin-4-one O-methyl oxime] | 0.121 | 0.032 |  |  | 
COc1ncnc2c1ccn2[C@@H]1O[C@H]([C@H](O)c2ccc3c(c2)CC3)[C@@H](O)[C@H]1O [Example 35, (2R,3S,4R,5R)-2-[(R)-4-bicyclo[4.2.0]octa-1,3,5-trienyl(hydroxy)methyl]-5-(4-methoxypyrrolo[2,3-d]pyrimidin-7-yl)tetrahydrofuran-3,4-diol] | 0.287 | 0.046 |  |  | 
Nc1ncnc2c1ccn2[C@@H]1O[C@H]([C@H](O)c2ccc3c(c2)OCC3)[C@@H](O)[C@H]1O [Example 14, (2R,3R,4S,5R)-2-(4-amino-7H-pyrrolo[2,3-d]pyrimidin-7-yl)-5-((R)-(2,3-dihydrobenzofuran-6-yl)(hydroxy)methyl)tetrahydrofuran-3,4-diol] | 0.0044 | 0.006 | 0.203 |  | 
Nc1ncnc2c1ccn2[C@@H]1O[C@H]([C@H](O)c2ccc3c(c2)CCC3)[C@@H](O)[C@H]1O [Example 45, (2R,3R,4S,5R)-2-(4-amino-7H-pyrrolo[2,3-d]pyrimidin-7-yl)-5-((R)-(2,3-dihydro-1H-inden-5-yl)(hydroxy)methyl)tetrahydrofuran-3,4-diol] | 0.0066 |  |  | 0.054 | 0.547
Nc1ncnc2c1c(C(F)(F)F)cn2[C@@H]1O[C@H]([C@H](O)c2ccc3c(c2)CC3)[C@@H](O)[C@H]1O [Example 38, (2R,3R,4S,5R)-2-(4-amino-5-(trifluoromethyl)-7H-pyrrolo[2,3-d]pyrimidin-7-yl)-5-((R)-bicyclo[4.2.0]octa-1(6),2,4-trien-3-yl(hydroxy)methyl)tetrahydrofuran-3,4-diol] | 0.221 | 0.368 |  |  | 
CCO/N=c1\[nH]cnc2c1ccn2[C@@H]1O[C@H]([C@H](O)c2ccc3c(c2)CC3)[C@@H](O)[C@H]1O [Example 21, 7-((2R,3R,4S,5R)-5-((R)-bicyclo[4.2.0]octa-1(6),2,4-trien-3-yl(hydroxy)methyl)-3,4-dihydroxytetrahydrofuran-2-yl)-3,7-dihydro-4H-pyrrolo[2,3-d]pyrimidin-4-one O-ethyl oxime] | 0.148 | 0.153 |  |  | 
CCOCc1ncnc2c1ccn2[C@@H]1O[C@H]([C@H](O)c2ccc3c(c2)CC3)[C@@H](O)[C@H]1O [Example 50, (2R,3S,4R,5R)-2-((R)-bicyclo[4.2.0]octa-1(6),2,4-trien-3-yl(hydroxy)methyl)-5-(4-(ethoxymethyl)-7H-pyrrolo[2,3-d]pyrimidin-7-yl)tetrahydrofuran-3,4-diol] | 2.52 |  |  |  | 
Nc1ncnc2c1c(I)cn2[C@@H]1O[C@H]([C@H](O)c2ccc3c(c2)CC3)[C@@H](O)[C@H]1O [Example 37, (2R,3R,4S,5R)-2-(4-amino-5-iodo-7H-pyrrolo[2,3-d]pyrimidin-7-yl)-5-((R)-bicyclo[4.2.0]octa-1(6),2,4-trien-3-yl(hydroxy)methyl)tetrahydrofuran-3,4-diol] | 0.031 | 0.012 |  |  | 
CCO/N=c1\[nH]cnc2c1ccn2[C@@H]1O[C@H]([C@](C)(O)c2ccc3c(c2)CC3)[C@@H](O)[C@H]1O [Example 22, 7-((2R,3R,4S,5S)-5-((R)-1-(bicyclo[4.2.0]octa-1(6),2,4-trien-3-yl)-1-hydroxyethyl)-3,4-dihydroxytetrahydrofuran-2-yl)-3,7-dihydro-4H-pyrrolo[2,3-d]pyrimidin-4-one O-ethyl oxime] | 0.189 | 0.057 |  |  | 
